# Assay results as given in patent US8008021B2, “N-terminal truncation of cardiac troponin subunits and their roles in cardiovascular disease” (Evanston Northwestern Healthcare, priority 2006, dated 2011).
# Target: T1, myofibril associated μ-calpain (Mus musculus, UniProt O35350)
# T1 construct: To test whether endogenous calpain in the cardiac muscle contributes to TnT NH2-terminal modification; from tissue
# T1 sequence (O35350 1-713): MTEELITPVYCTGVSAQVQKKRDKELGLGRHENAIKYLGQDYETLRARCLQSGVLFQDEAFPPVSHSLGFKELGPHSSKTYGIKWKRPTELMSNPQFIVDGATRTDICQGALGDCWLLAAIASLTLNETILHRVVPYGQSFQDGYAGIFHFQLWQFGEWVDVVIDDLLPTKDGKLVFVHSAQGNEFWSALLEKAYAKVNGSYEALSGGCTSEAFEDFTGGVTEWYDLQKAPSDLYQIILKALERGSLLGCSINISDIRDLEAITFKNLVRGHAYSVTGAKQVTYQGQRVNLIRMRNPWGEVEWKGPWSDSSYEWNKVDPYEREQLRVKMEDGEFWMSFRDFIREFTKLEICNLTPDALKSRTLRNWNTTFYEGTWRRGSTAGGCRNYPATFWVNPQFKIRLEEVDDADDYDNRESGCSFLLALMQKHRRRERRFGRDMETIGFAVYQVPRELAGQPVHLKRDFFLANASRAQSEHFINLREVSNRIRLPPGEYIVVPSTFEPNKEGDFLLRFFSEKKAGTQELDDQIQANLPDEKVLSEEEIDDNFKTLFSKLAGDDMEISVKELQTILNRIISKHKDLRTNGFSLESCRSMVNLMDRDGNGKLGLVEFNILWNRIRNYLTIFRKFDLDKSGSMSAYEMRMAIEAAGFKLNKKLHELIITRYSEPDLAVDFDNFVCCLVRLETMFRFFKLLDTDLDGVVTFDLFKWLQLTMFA
# T1 sequence (O88456 1-268 partner): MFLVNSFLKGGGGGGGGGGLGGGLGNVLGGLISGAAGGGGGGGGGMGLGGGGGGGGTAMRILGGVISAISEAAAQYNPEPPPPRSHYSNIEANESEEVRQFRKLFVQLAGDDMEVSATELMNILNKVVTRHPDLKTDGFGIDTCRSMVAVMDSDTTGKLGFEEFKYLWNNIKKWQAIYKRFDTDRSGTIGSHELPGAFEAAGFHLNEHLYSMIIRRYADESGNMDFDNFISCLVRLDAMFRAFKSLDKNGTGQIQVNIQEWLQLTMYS
# Assay: Calpain inhibition of cTnT-ND production in TRITON X-100 extracted ventricular muscle strips (Western blot densitometry)
# Assay type: biochemical
# Settings: calpain specific inhibitor; TRITON X-100 extracted mouse cardiac muscle strips
# Experimental: SDS-PAGE and Western blotting. Ventricular muscle tissues or myocytes were homogenized in Laemmli SDS-PAGE sample buffer containing 2% SDS, heated at 80° C. for 5 min, and clarified by centrifugation. Total protein extracts were resolved by 14% Laemmli gel with an acrylamide:bisacrylamide ratio of 180:1 (low cross linker) or by 15% Laemmli gel with an acrylamide:bisacrylamide ratio of 29:1 (high cross linker). The gels were stained with Coomassie Brilliant Blue R250 to reveal the resolved protein bands. Duplicate gels were electrically blotted to nitrocellulose membranes, as described previously (21). After blocking in Tris-buffered saline (TBS) containing 1% bovine serum albumin (BSA), the membrane was incubated with anti-TnT mAbs CT3, 2C8, or polyclonal antibody RATnT. The membranes were then washed with high stringency using TBS containing 0.5% TRITON® X-100 and 0.05% SDS, incubated with alkaline phosphatase-conjugated anti-mouse IgG or anti-rabbit IgG second antibodies (Sigma), washed again, and developed in 5-bromo-4-chloro-3-indolylphosphate/nitro blue tetrazolium substrate solution, as described previously (21).
# TRITON® X-100 extraction of ventricular muscle strips. In an ice container, ventricular muscle was cut with a sharp razor blade into fine pieces approximately the size of isolated trabeculae. The muscle strips were washed in relaxing solution containing […], 2 mM MgCl2, 2 mM EGTA, 10 mM Tris, 0.5 mM DTT, 0.1 mM PMSF and 2 mM Na4P2O7. After centrifugation at 2,800×g at 4° C. for 15 min, the pellet was skinned in relaxing solution plus 0.5% (w/w) TRITON® X-100 at 4° C. with rotation for 10 min. After centrifugation at 14,000×g at 4° C. for 20 min, the pellet was suspended in relaxing solution without TRITON® X-100 and incubated at 37° C. with rotation. Samples were collected at a series of time points for SDS-PAGE and Western blotting to examine the modifications of cTnT and other myofibrillar proteins.
# Calpain inhibition. To test whether endogenous calpain in the cardiac muscle contributes to TnT NH2-terminal modification, several different calpain inhibitors were applied to the TRITON® X-100 extraction procedure. […] TRITON® X-100 treatment of mouse ventricular muscle strips was carried out as above in the presence or absence of 100 μM hydrogen peroxide and the effect on cTnT modification was examined by Western blotting.
# The effects of two cell membrane-permissible nonpeptide calpain inhibitors, PD 150606 and PD 151746 (Calbiochem), were also tested. […] PD 150606 and […] were separately added to the relaxing solution before TRITON® X-100 treatment and incubated with the minced ventricular muscle at 4° C. for 10 minutes to allow the inhibitor to penetrate cell membrane and bind to calpain. After TRITON® X-100 extraction, samples were collected for SDS-PAGE and Western blotting to examine the effect on cTnT modification.
cTnT-ND production decreased to [%],decrease in cTnT-ND72-291 production,Structure (SMILES)
63,approximately 37%,O=C(O)/C(S)=C/c1ccc(I)cc1 [PD150606]
50,approximately 50%,O=C(O)/C(S)=C/c1c[nH]c2ccc(F)cc12 [PD151746]
